Source: EP0195496A2, “Use of xanthines in the treatment of proliferative skin disease” (BEECHAM GROUP PLC, priority 1985, dated 1986)

These molecules were tested against cyclic AMP phosphodierterase (assay: cyclic AMP phosphodiesterase activity in rat gastrocnemius muscle homogenates (Dixon plot)). Settings: compounds of formula (I); homogenates of rat gastocnemius muscle; 0.31 uM cyclic AMP as substrate; Dixon plot extrapolation; read-out: Apparent Ki value.
Format: biochemical
Protocol: The activity of cyclic AMP phosphodierterase in homogenates of rat gastocnemius muscle was measured in the presence of various concentrations of compounds of formulae (I), (II), (III), (IV) or (V) using 0.31 uM cyclic AMP as substration. The reciprocal of the reaction rate was plotted on the y axis against the concentration of each compound on the x axis (Dixon plot). The apparent Ki value was estimated by extrapolating the steeper linear portion of the Dixon plot to the x axis and obtaining the negative intercept on the x axis.

Row | Structure (SMILES) | Ki
1 | CCCCn1c(=O)c2c(ncn2C(C)C(C)=O)n(CCCC)c1=O (centres unmarked) | 30.1 µM
2 | CC(=O)Cn1cnc2c1c(=O)n(C(C)C)c(=O)n2C(C)C [1,3-di-iso-propyl-7-(2-oxopropyl) xanthine] | 6.1 µM
3 | CCCCn1c(=O)c2c(ncn2C(C)CC(C)=O)n(CCCC)c1=O (centres unmarked) | 17.5 µM
4 | CCCCn1c(=O)c2c(ncn2C(C)C(C)=O)n(CC)c1=O (centres unmarked) | 24.8 µM

Second part, the molecule after the results:

Row | Ki | Structure (SMILES)
5 | 25 µM | CCCCn1c(=O)c2c(ncn2CCC(C)=O)n(CCCC)c1=O [formula (I) R^1=C4H9 R^2=C4H9 X=-(CH2)2-, 1,3-di-n-butyl-7-(3-oxobutyl) xanthine]
6 | 27 µM | CCCn1c(=O)c2c(ncn2CCC(C)=O)n(CCC)c1=O [formula (I) R^1=C3H7 R^2=C3H7 X=-(CH2)2-]
7 | 3.3 µM | CCCCn1c(=O)c2c(ncn2CC(C)=O)n(CCCC)c1=O [formula (I) R^1=C4H9 R^2=C4H9 X=-CH2-, 1,3-di-n-butyl-7-(2-oxopropyl) xanthine]
8 | 21 µM | CCCCn1c(=O)c2c(ncn2CC(C)=O)n(CC)c1=O [formula (I) R^1=C4H9 R^2=C2H5 X=-CH2-]
9 | 2 µM | CCCCn1c(=O)c2c(ncn2CC(C)=O)n(CCC)c1=O [formula (I) R^1=C4H9 R^2=C3H7 X=-CH2-, 1-n-butyl 3-n-propyl-7-(2-oxopropyl) xanthine]
10 | 12 µM | CCCCn1c(=O)c2c(ncn2CCC(C)=O)n(CC)c1=O [formula (I) R^1=C4H9 R^2=C2H5 X=-(CH2)2-, 1-n-butyl 3-ethyl-7-(3-oxobutyl) xanthine]
11 | 39 µM | CCCCn1c(=O)c2c(ncn2CCCC(C)=O)n(CCCC)c1=O [formula (I) R^1=C4H9 R^2=C4H9 X=-(CH2)3-]
12 | 14.1 µM | CCCCn1c(=O)c2c(ncn2CCCCC(C)=O)n(CCCC)c1=O [formula (I) R^1=C4H9 R^2=C4H9 X=-(CH2)4-, 1,3-di-n-butyl-7-(5-oxohexyl)xanthine]

Same assay, conditions: compounds of formula (II); homogenates of rat gastocnemius muscle; 0.31 uM cyclic AMP as substrate; Dixon plot extrapolation; read-out: Apparent Ki Value

Row | Ki | Structure (SMILES)
13 | 2.5 µM | CCCCn1c(=O)c2c(ncn2CC(C)=O)n(CCCC)c1=S [1,3-di-n-butyl-7-(2-oxopropyl)-2-thioxanthine]
14 | 41 µM | CCCCn1c(=S)c2c(ncn2CC(C)=O)n(CC)c1=O
15 | 22.9 µM | CCCCn1c(=S)c2c(ncn2CCC(C)=O)n(CC)c1=O

Same assay, conditions: compounds of formula (III); homogenates of rat gastocnemius muscle; 0.31 uM cyclic AMP as substrate; Dixon plot extrapolation; read-out: Apparent Ki value

Row | Structure (SMILES) | Ki
16 | CCn1c(=O)c2c(ncn2CC2(C)OCCO2)n(CC)c1=O | 73 µM
17 | CCCCn1c(=O)c2c(ncn2CC2(C)OCCO2)n(CC)c1=O | 45 µM

Results, then the molecule that gave them:

Row | Ki | Structure (SMILES)
18 | 27 µM | CCCCn1c(=O)c2c(ncn2CC(C)(OC)OC)n(CCCC)c1=O [1,3-di-n-butylxanthin-7-yl propan-2-one, dimethyl ketal]
19 | 29 µM | CCCCn1c(=O)c2c(ncn2CC2(C)OCCO2)n(CCCC)c1=O [2-methyl-2-[(1,3-di-n-butylxanthin-7-yl)methyl]-1,3-di oxolane]

Same assay, conditions: compounds of formula (V); homogenates of rat gastocnemius muscle; 0.31 uM cyclic AMP as substrate; Dixon plot extrapolation; read-out: Apparent Ki value

Row | Ki | Structure (SMILES)
20 | 3.9 µM | CCCCn1c(=O)n(CCCCC(C)=O)c(=O)c2c1ncn2CC(C)=O [formula (V) R^12=C4H9, 1-(5-oxohexyl)-3-n-butyl-7-(2-oxopropyl) xanthine]
